Series [1] has as its system HT29: human colon cancer cell line. As to the kind of experiment: Proliferation IC50 assay, oxic/hypoxic, HT29. The note with it: Table 3; for IC50: 4 h exposure under aerobic conditions; for HCR (hypoxic cytotoxicity ratio) HT29: IC50(aerobic)/IC10(hypoxic). Type of series: cell-based.
A short description of series [2]: One-electron reduction potential E(1) by pulse radiolysis. The format is physicochemical. As to conditions: determined by pulse radiolysis.
Series [3] deals with SKOV3: human ovarian carcinoma cell line. The experiment in a line: Proliferation IC50 assay, oxic/hypoxic, SKOV3. Type of series: cell-based. As to conditions: Table 3; for IC50: 4 h exposure under aerobic conditions; for HCR (hypoxic cytotoxicity ratio) SKOV3: IC50(aerobic)/IC10(hypoxic).
In another series the test system is HT29 clonogens. The experiment in a line: Clonogenic assay (C10), oxic/hypoxic, HT29. As to conditions: for Clonogenic HCR HT29: C10(aerobic)/C10(hypoxic); for Clonogenic C10 HT29 Oxic: concentration to reduce HT29 clonogens to 10% of controls, 4 hr exposure under aerobic conditions. Type of series: cell-based, human.
Series [4] can be described thus: Hypoxic metabolism with HT29 tumour S9 (HPLC). The note with it: 10 μM with tumour S9 (12 mg/mL protein), 37° C., pH 7.4, NADPH 1 mM, 2 h, hypoxic; products R3, 56, 55, 60. From the text: Metabolism of compounds of Formula I was investigated using S9 preparations from HT29 tumours grown as xenografts in CD-1 mice.

`CN(C)CCOc1ccc2[nH]c(C(=O)N3CC(CCl)c4c3cc([N+](=O)[O-])c3c(C(N)=O)cccc43)cc2c1` (centres unmarked) [Compound 5, 1-(Chloromethyl)-3-{5-[2-(dimethylamino)ethoxy]indol-2-carbonyl}-5-nitro-1,2-dihydro-3H-benzo[e]indole-6-carboxamide] registered a melting point of over 350 °C. Besides, in series [1] (Homo sapiens, HT-29), the IC50 is 23000 nM. Besides, the “HCR (hypoxic cytotoxicity ratio) HT29” value in series [1] is 43. Besides, the “E(1): one-electron reduction potential” value in series [2] is −481 ± 8 mV. In series [3] (Homo sapiens, SK-OV-3), this compound came in with an IC50 of 50000 nM. Besides, the “HCR (hypoxic cytotoxicity ratio) SKOV3” value in series [3] is recorded as 18.

`COc1cc2cc(C(=O)N3CC(CCl)c4c3cc([N+](=O)[O-])c3cc(C(C)=O)ccc43)[nH]c2c(OC)c1OC` (centres unmarked) [Compound 11, 7-Acetyl-1-(chloromethyl)-5-nitro-3-(5,6,7-trimethoxyindol-2-carbonyl)-1,2-dihydro-3H-benzo[e]indole]: the melting point was in the range of 257 to 260 °C. In the series with HT29 clonogens, the “Clonogenic HCR HT29” value is reported as over 13.5 and the “Clonogenic C10 HT29 Oxic” value is over 25 µM. Also, inhibition in series [1] (Homo sapiens, HT-29) was half-maximal at 4100 nM (IC50). Moreover, the “HCR (hypoxic cytotoxicity ratio) HT29” value in series [1] is given as 5.2. The IC50 in series [3] (Homo sapiens, SK-OV-3) was 5100 nM. Also, in series [3], the “HCR (hypoxic cytotoxicity ratio) SKOV3” value worked out at 19.

In the case of `CN(C)CCOc1ccc2[nH]c(C(=O)N3CC(CCl)c4c3cc([N+](=O)[O-])c3ccccc43)cc2c1` (centres unmarked) [Compound R2, reference compound], the “Clonogenic HCR HT29” value in the series on HT29 clonogens is recorded as 2. In the series on HT29 clonogens, the “Clonogenic C10 HT29 Oxic” value is 4.8 µM. Moreover, the “k: rate of formation of compound of Formula II” value (“k: rate” for short) in series [4] came out at 0.49 µM/h. The IC50 in series [1] (Homo sapiens, HT-29) was determined as 470 nM; in series [3] (Homo sapiens, SK-OV-3) it was 1400 nM. Also, the “E(1): one-electron reduction potential” value in series [2] is on record as −512 ± 8 mV.

The compound `CN(C)CCOc1ccc2[nH]c(C(=O)N3CCc4c3cc([N+](=O)[O-])c3c(S(N)(=O)=O)c(CCl)ccc43)cc2c1` [Compound 7, 7-(Chloromethyl)-3-{5-[2-(dimethylamino)ethoxy]indol-2-carbonyl}-5-nitro-1,2-dihydro-3H-benzo[e]indole-6-sulfonamide] returned a melting point of over 320 °C. In addition, half-maximal inhibition in series [1] (Homo sapiens, HT-29) (IC50) was put at 2700 nM. Besides, the “HCR (hypoxic cytotoxicity ratio) HT29” value in series [1] came out at 2.3. Besides, in series [2], the “E(1): one-electron reduction potential” value was −497 ± 8 mV. Half-maximal inhibition in series [3] (Homo sapiens, SK-OV-3) (IC50) was put at 3700 nM. The “HCR (hypoxic cytotoxicity ratio) SKOV3” value in series [3] is listed as 4.6.

On to `COC(=O)c1ccc2c3c(cc([N+](=O)[O-])c2c1)N(C(=O)c1cc2cc(OCCN(C)C)ccc2[nH]1)CC3CCl` (centres unmarked) [Compound 14, Methyl 1-(chloromethyl)-3-{5-[2-(dimethylamino)ethoxy]indol-2-carbonyl}-5-nitro-1,2-dihydro-3H-benzo[e]indole-7-carboxylate], for which the IC50 stood at 320 nM in series [1] (Homo sapiens, HT-29) and 440 nM in series [3] (Homo sapiens, SK-OV-3). In addition, the “HCR (hypoxic cytotoxicity ratio) HT29” value in series [1] was found to be 1.2. The “E(1): one-electron reduction potential” value in series [2] was −429 ± 8 mV. In addition, in series [3], the “HCR (hypoxic cytotoxicity ratio) SKOV3” value was found to be 1.9.

As for `CN(C)CCOc1ccc2[nH]c(C(=O)N3CC(CCl)c4c3cc([N+](=O)[O-])c3cc(C(N)=O)ccc43)cc2c1` (centres unmarked) [Compound 16, 1-(Chloromethyl)-3-{5-[2-(dimethylamino)ethoxy]indol-2-carbonyl}-5-nitro-1,2-dihydro-3H-benzo[e]indole-7-carboxamide], the “Clonogenic HCR HT29” value with HT29 clonogens is on record as over 14. Further, in the series on HT29 clonogens, the “Clonogenic C10 HT29 Oxic” value is over 25 µM. The “k: rate” value in series [4] is 1.48 µM/h. The IC50 amounted to 4100 nM in series [1] (Homo sapiens, HT-29) and 3900 nM in series [3] (Homo sapiens, SK-OV-3). The “E(1): one-electron reduction potential” value in series [2] is recorded as −422 ± 10 mV.

`CN(C)CCOc1ccc2[nH]c(C(=O)N3CC(CCl)c4c3cc([N+](=O)[O-])c3c(C#N)cccc43)cc2c1` (centres unmarked) [Compound 6, 1-(Chloromethyl)-3-{5-[2-(dimethylamino)ethoxy]indol-2-carbonyl}-5-nitro-1,2-dihydro-3H-benzo[e]indole-6-carbonitrile] gave a melting point of over 300 °C. In series [1] (Homo sapiens, HT-29), the IC50 is 120 nM. Also, in series [1], the “HCR (hypoxic cytotoxicity ratio) HT29” value is 1.1. In addition, the “E(1): one-electron reduction potential” value in series [2] is reported as −491 ± 8 mV. This compound registered an IC50 in series [3] (Homo sapiens, SK-OV-3) of 170 nM. Also, the “HCR (hypoxic cytotoxicity ratio) SKOV3” value in series [3] came to 1.7.

Consider `CN(C)CCOc1ccc2[nH]c(C(=O)N3CC(CCl)c4c3cc([N+](=O)[O-])c3ccc(C(N)=O)cc43)cc2c1` (centres unmarked) [Compound 43, 1-(Chloromethyl)-3-{5-[2-(dimethylamino)ethoxy]indol-2-carbonyl}-5-nitro-1,2-dihydro-3H-benzo[e]indole-8-carboxamide], for which the “Clonogenic HCR HT29” value with HT29 clonogens amounted to 21.2. Further, the “Clonogenic C10 HT29 Oxic” value with HT29 clonogens is 33 µM. Further, the IC50 in series [1] (Homo sapiens, HT-29) is 2800 nM; in series [3] (Homo sapiens, SK-OV-3) it was 3400 nM. For the same compound, the “HCR (hypoxic cytotoxicity ratio) HT29” value in series [1] was 22. In series [2], the “E(1): one-electron reduction potential” value was −447 ± 9 mV. For the same compound, the “HCR (hypoxic cytotoxicity ratio) SKOV3” value in series [3] was determined as 34.

On to `CN(C)CCOc1ccc2[nH]c(C(=O)N3CC(CCl)c4c3cc([N+](=O)[O-])c3ccc(C#N)cc43)cc2c1` (centres unmarked) [Compound 45], for which, in series [1], the IC50 was 1400 nM and the “HCR (hypoxic cytotoxicity ratio) HT29” value is reported as 1.4. In addition, the “E(1): one-electron reduction potential” value in series [2] is recorded as −419 ± 8 mV. For the same compound, in series [3], the 50% inhibitory concentration (IC50) was determined as 1200 nM and the “HCR (hypoxic cytotoxicity ratio) SKOV3” value stood at 1.5.

`CN(C)CCOc1ccc2[nH]c(C(=O)N3CC(CCl)c4c3cc([N+](=O)[O-])c3ccc(S(C)(=O)=O)cc43)cc2c1` (centres unmarked) [Compound 47, 1-(Chloromethyl)-3-{5-[2-(dimethylamino)ethoxy]indol-2-carbonyl}-8-(methylsulfonyl)-5-nitro-1,2-dihydro-3H-benzo[e]indole]: the IC50 in series [1] (Homo sapiens, HT-29) was 980 nM; in series [3] (Homo sapiens, SK-OV-3), 1900 nM. In series [1], the “HCR (hypoxic cytotoxicity ratio) HT29” value is 1.2. Besides, the “E(1): one-electron reduction potential” value in series [2] is −420 ± 8 mV. For the same compound, in series [3], the “HCR (hypoxic cytotoxicity ratio) SKOV3” value is listed as 2.7.

`COc1cc2cc(C(=O)N3CC(CCl)c4c3cc([N+](=O)[O-])c3cc([N+](=O)[O-])ccc43)[nH]c2c(OC)c1OC` (centres unmarked) [Compound 8]: in the series with HT29 clonogens, the “Clonogenic HCR HT29” value is given as over 16.2 and the “Clonogenic C10 HT29 Oxic” value is over 25 µM. In series [1], the midpoint of inhibition, the IC50, lay at 14000 nM and the “HCR (hypoxic cytotoxicity ratio) HT29” value came to 12. Further, in series [3], the IC50 stood at 16000 nM and the “HCR (hypoxic cytotoxicity ratio) SKOV3” value was 78.

With `CN(C)CCOc1ccc2[nH]c(C(=O)N3CC(CCl)c4c3cc([N+](=O)[O-])c3cc(C#N)ccc43)cc2c1` (centres unmarked) [Compound 22, 1-(Chloromethyl)-3-{5-[2-(dimethylamino)ethoxy]indol-2-carbonyl}-5-nitro-1,2-dihydro-3H-benzo[e]indole-7-carbonitrile], the “k: rate” value in series [4] came out at 1.27 µM/h. In addition, the half-inhibitory concentration (IC50) in series [1] (Homo sapiens, HT-29) is 700 nM; in series [3] (Homo sapiens, SK-OV-3), 810 nM. Further, the “E(1): one-electron reduction potential” value in series [2] is recorded as −385 ± 8 mV.

For the compound `COc1cc2cc(C(=O)N3CC(CCl)c4c3cc([N+](=O)[O-])c3cc(C(=O)NCCN(C)C)ccc43)[nH]c2c(OC)c1OC` (centres unmarked) [Compound 20, 1-(Chloromethyl)-N-[2-(dimethylamino)ethyl]-5-nitro-3-(5,6,7-trimethoxyindol-2-carbonyl)-1,2-dihydro-3H-benzo[e]indole-7-carboxamide], the IC50 in series [1] (Homo sapiens, HT-29) was determined as 1500 nM; in series [3] (Homo sapiens, SK-OV-3) it was 2000 nM. Further, the “HCR (hypoxic cytotoxicity ratio) HT29” value in series [1] is 5.9. In addition, the “E(1): one-electron reduction potential” value in series [2] is −427 ± 12 mV. Also, the “HCR (hypoxic cytotoxicity ratio) SKOV3” value in series [3] is 24.

For the compound `CN(C)CCOc1ccc2[nH]c(C(=O)N3CC(CCl)c4c3cc([N+](=O)[O-])c3cc(S(C)(=O)=O)ccc43)cc2c1` (centres unmarked) [Compound 24, 1-(Chloromethyl)-3-{5-[2-(dimethylamino)ethoxy]indol-2-carbonyl}-7-(methylsulfonyl)-5-nitro-1,2-dihydro-3H-benzo[e]indole], the IC50 in series [1] (Homo sapiens, HT-29) worked out at 970 nM; in series [3] (Homo sapiens, SK-OV-3), 1300 nM. Further, the “HCR (hypoxic cytotoxicity ratio) HT29” value in series [1] was 4.0. Further, in series [2], the “E(1): one-electron reduction potential” value is −362 ± 8 mV. Also, the “HCR (hypoxic cytotoxicity ratio) SKOV3” value in series [3] is reported as 11.

With `CN(C)CCOc1ccc2[nH]c(C(=O)N3CC(CCl)c4c3cc([N+](=O)[O-])c3ccc(S(N)(=O)=O)cc43)cc2c1` (centres unmarked) [Compound 49, 1-(Chloromethyl)-3-{5-[2-(dimethylamino)ethoxy]indol-2-carbonyl}-5-nitro-1,2-dihydro-3H-benzo[e]indole-8-sulfonamide], the melting point is 260 to 265 °C (dec.). Also, the IC50 in series [1] (Homo sapiens, HT-29) was determined as 9000 nM. Also, in series [1], the “HCR (hypoxic cytotoxicity ratio) HT29” value came to 26. For the same compound, the “E(1): one-electron reduction potential” value in series [2] is reported as −456 ± 8 mV. Also, in series [3] (Homo sapiens, SK-OV-3), the IC50 is 4900 nM. Also, the “HCR (hypoxic cytotoxicity ratio) SKOV3” value in series [3] came out at 21.

As to `CN(C)CCNS(=O)(=O)c1ccc2c3c(cc([N+](=O)[O-])c2c1)N(C(=O)c1cc2cc(OCCN(C)C)ccc2[nH]1)CC3CCl` (centres unmarked) [Compound 39, 1-(Chloromethyl)-3-{5-[2-(dimethylamino)ethoxy]indol-2-carbonyl}-N-[2-(dimethylamino)ethyl]-5-nitro-1,2-dihydro-3H-benzo[e]indole-7-sulfonamide], in the series on HT29 clonogens, the “Clonogenic HCR HT29” value worked out at 55 and the “Clonogenic C10 HT29 Oxic” value came out at 6.2 µM. The half-maximal inhibitory concentration (IC50) in series [1] (Homo sapiens, HT-29) amounted to 730 nM. Besides, the “HCR (hypoxic cytotoxicity ratio) HT29” value in series [1] is 110. Moreover, the “E(1): one-electron reduction potential” value in series [2] is listed as −357 ± 8 mV. The IC50 in series [3] (Homo sapiens, SK-OV-3) is 830 nM. Also, the “HCR (hypoxic cytotoxicity ratio) SKOV3” value in series [3] turned out to be 130.

For orientation: IC50 means the midpoint of a concentration-inhibition curve. High values mean weaker potency in that assay, low ones greater potency in that assay. A word on the melting point: it is the temperature of the solid-liquid transition.

Values taken from patent US7718688B2, “Nitrobenzindoles and their use in cancer therapy” (Auckland Uniservices Limited, priority 2004, dated 2010).
